From PubChem BioAssay AID743475 (The Scripps Research Institute Molecular Screening Center, 2014)
Active and inactive are the calls of the source. The rule behind the calls is not given here.

Tested on: OTUB2
Experiment: late-stage follow-up, selectivity assay for CCHF vOTU protease inhibitor project, biochemical, fluorescence, assay provider (AID 743475)
Conditions: recombinant OTUB2, fluorogenic ubiquitin substrate, stronger effect = higher value

`O=C(COC(=O)c1ccc([N+](=O)[O-])s1)NCc1ccc(F)cc1` showed an inhibition (run 1, at 40.58 µM) of 39.9%.

Work on `COc1ccc2noc3c2c1C(=O)c1ccccc1-3` yielded an inhibition (run 1, at 6.28 µM) of 170%.

Work on `O=C(COC(=O)c1ccc([N+](=O)[O-])s1)Nc1ccc(F)cc1` yielded an inhibition (run 1, at 26.34 µM) of 40.3%.

Compound `Cc1ccccc1-c1cc2c(nn1)-c1ccccc1C2=O` has an inhibition (run 2, at 4.46 µM) of 23.3%.

In the case of `CCOC(=O)N=Nc1c2ccccc2c2nc3no[nH]c3nc12`, the inhibition (run 1, at 7.75 µM) is reported as 37.8%.

Compound `Cc1ccc2c(c1C)-c1c(ccc(C)c1C)C(=O)C2=O` has an inhibition (run 1, at 18.9 µM) of 60.1%.

`CC1COCC(C)N1C1=C(Cl)C(=O)c2ccccc2C1=O` (centres undefined) was tested, and the inhibition (run 1, at 14.67 µM) was 23.6%.

Compound `Cc1ccc(NC2=CC(=O)C(=O)c3ccccc32)cc1` has an inhibition (run 1, at 12.24 µM) of 78.7%.

With `COC1=C(N)C(=O)c2nc(C)ccc2C1=O` the inhibition (run 1, at 4.98 µM) was 67.6%.

`O=C(/C=C/c1ccc(O)cc1)c1ccc(NC2=C(N3CCCCC3)C(=O)c3ccccc3C2=O)cc1` was tested, and the inhibition (run 1, at 10.17 µM) was 30.7%.

`NS(=O)(=O)c1ccc(NC2=CC(=O)C(=O)c3ccccc32)cc1` gave an inhibition (run 1, at 11.51 µM) of 78.7%.

With `CCc1cc[n+](C2=C(NS(=O)(=O)c3cccs3)C(=O)c3ccccc3C2=O)cc1` the inhibition (run 1, at 14.16 µM) was 54%.

Compound `O=C1Cc2ccccc2C(=O)N1` has an inhibition (run 1, at 0.6 µM) of 67.3%.

`COc1cc(NC(=O)COC(=O)c2ccc([N+](=O)[O-])s2)cc(OC)c1OC` showed an inhibition (run 1, at 21.72 µM) of 41.2%.

`O=C(NC1=CC(=O)c2ccccc2C1=O)c1ccccc1` showed an inhibition (run 1, at 12.37 µM) of 46.4%.

With `Cc1ccc(N2C(=O)[C@@H]3[C@H](C2=O)C2c4ccccc4C=CN2[C@@H]3C(=O)c2ccco2)cc1` (some centres undefined) the inhibition (run 1, at 5.2 µM) was 55.4%.

`Cc1c(Cl)cnc(NC(=O)COC(=O)c2ccc([N+](=O)[O-])s2)c1Cl` was tested, and the inhibition (run 1, at 20.44 µM) was 49.9%.

Compound `O=c1[nH]c(Nc2ccccc2)cc2cc(Br)ccc12` has an inhibition (run 1, at 1.45 µM) of 57.8%.

In the case of `NS(=O)(=O)c1ccc(NC(=O)COC(=O)c2ccc([N+](=O)[O-])s2)cc1`, the inhibition (run 1, at 29.01 µM) is reported as 37.5%.

With `O=C1Cc2ccccc2C(=O)N1Cc1ccccc1` the inhibition (run 1, at 1.31 µM) was 68.4%.

`CC1(C)C=C2C(=NN(c3ccccc3)C(N)=C2C#N)CO1` gave an inhibition (run 1, at 23.49 µM) of 78.2%.

Work on `CN(C1=C(NC(=O)c2ccccc2)C(=O)c2ccccc2C1=O)C1CCS(=O)(=O)C1` (centres undefined) yielded an inhibition (run 2, at 19.2 µM) of 57.8%.

Work on `O=C(COC(=O)c1ccc([N+](=O)[O-])s1)Nc1ncc(C(F)(F)F)cc1Cl` yielded an inhibition (run 1, at 27.79 µM) of 42.3%.

In the case of `COc1cc(Br)c(C(=O)c2nccc3cc(OC)c(OC)cc23)cc1OC`, the inhibition (run 1, at 1.13 µM) is reported as 17.2% (inactive).

`O=C(c1ccco1)[C@@H]1[C@@H]2C(=O)N(c3ccc(Br)cc3)C(=O)[C@@H]2C2c3ccccc3C=CN21` (some centres undefined) was tested, and the inhibition (run 1, at 11.01 µM) was 91.8%.

Work on `O=C1C=C(Nc2ccccc2)c2ccccc2C1=O` yielded an inhibition (run 1, at 15.55 µM) of 75.6%.

For `O=C(OCc1nnc(-c2ccccc2)o1)c1ccc([N+](=O)[O-])s1`, the inhibition (run 1, at 26.04 µM) was 46.9%.

With `O=C1Cc2ccccc2C(=O)N1CCc1ccccc1` the inhibition (run 2, at 3.02 µM) was 14.9% (inactive).

In the case of `COC(CNC(=O)c1ccc2c3c(onc13)-c1ccccc1C2=O)OC`, the inhibition (run 1, at 24.19 µM) is reported as 58.5%.

With `CC1CCCC(NC(=O)COC(=O)c2ccc([N+](=O)[O-])s2)C1C` (centres undefined) the inhibition (run 1, at 31.32 µM) was 33.7%.

`CCn1nc(/C=C/c2ccccc2)nc2c(=O)n(C)c(=O)nc1-2` gave an inhibition (run 1, at 0.49 µM) of 98.8%.

`COc1ccccc1NC(=O)COC(=O)c1ccc([N+](=O)[O-])s1` was tested, and the inhibition (run 1, at 35.07 µM) was 61.9%.

`O=C(NC1=C(NC2CCS(=O)(=O)C2)C(=O)c2ccccc2C1=O)c1ccccc1` (centres undefined) showed an inhibition (run 1, at 14.2 µM) of 56.9%.

Compound `Cn1nc(-c2ccccn2)nc2c(=O)n(C)c(=O)nc1-2` has an inhibition (run 1, at 1.16 µM) of 98%.
